# Patent US11866689B2, “Splice-switching oligonucleotides and methods of use” (Duke University, priority 2018, dated 2024)
# What was measured:
# Format in all cases: cell-based
# ARv7 [1] = test: ARv7 level after morpholino treatment of LN95 cells (RT-qPCR); conditions: 0-2.5 uM in complete media, 72 h, FIG. 6A
# Method: (§1) Briefly, LN95 cells were seeded in a 12 well plate in complete media (RPMI+10% charcoal stripped FBS) at 250,000 cells per well and incubated at 37 C and 5% CO2 in a humidified incubator. After 24 hours, 0, 0.5, 1, 1.5, 2, or 2.5 uM of ARv7 morph 1 morpholino or control morpholino was diluted in complete media and added to each well. After 72 additional hours of incubation, media was removed and cells were collected in RNA lysis buffer.
# (§2) RNA was extracted using the Quick-RNA Miniprep kit (Zymo Research) following manufacturer's protocol. RNA was eluted in water and quantified using a Qubit fluorometer (Thermo Fisher). Reverse transcription (RT) reactions were performed using the ABI High Capacity cDNA Reverse Transcription Kit (Thermo Fisher) using 1 ug of RNA. RT reactions were incubated following manufacturer's protocol in a SimpliAmp thermocycler (Life Technologies). […] Fold Change from Scramble was calculated using the 2^-ΔΔCT method with TBP as the housekeeping gene and the control morpholino as the treatment control.
# full length AR [2] = test: Full length AR level after morpholino treatment of LN95 cells (RT-qPCR); conditions: 0-2.5 uM in complete media, 72 h, FIG. 6B
# Method: as §1, §2
# ARv7 [3] = test: ARv7 level after SSO transfection of prostate cancer cells (RT-qPCR, Western blot); conditions: for ARv7 (fold change from Scramble): vs Scramble/Scr control
# Method: A total of 6.25, 25, 100, or 400 nM of ARv7 SSO-6, 100 nM of ARv7 SSO-6ext, or 100 or 400 nM of Scrambled SSO was diluted in Opti-MEM and mixed with 2 uL Dharmafect 1 (LN95) or RNAiMax (VCaP) diluted in Opti-MEM for a total of 200 uL. The SSO-transfection reagent mixtures were incubated for 10 minutes at room temperature followed by plating in a 12 well plate. A total of 250,000 cells diluted in 800 uL Optimem were seeded atop the SSO-transfection reagent mixtures and incubated for 4 hours at 37° C. and 5% CO2 in a humidified incubator. Media was replaced with complete media after 4 hours (RPMI+10% charcoal stripped FBS for LN95 cells and DMEM+10% FBS for VCaP cells). After an additional 72 or 96 hours of incubation, media was removed and cells were collected in RNA lysis buffer or RIPA buffer containing protease inhibitor (Thermo Fisher).
# RNA was extracted using the Quick-RNA Miniprep kit (Zymo Research) following manufacturer's protocol. RNA was eluted in water and quantified using a Qubit fluorometer (Thermo Fisher). Reverse transcription (RT) reactions were performed using the ABI High Capacity cDNA Reverse Transcription Kit (Thermo Fisher) using 1 ug of RNA. RT reactions were incubated following manufacturer's protocol in a SimpliAmp thermocycler (Life Technologies). […] RT-qPCR was run on a ViiA7 Real-Time PCR System (Applied Biosystems) using the following conditions: 95° C. for 2 minutes, 40×(95 C for 1 second, 60° C. for 20 seconds). Fold Change from Scramble was calculated using the 2^-ΔΔCT method with TBP as the housekeeping gene and the Scrambled SSO as the treatment control.
# RNA was extracted using the Quick-RNA Miniprep kit (Zymo Research) following manufacturer's protocol. RNA was eluted in water and quantified using a Qubit fluorometer (Thermo Fisher). […] Fold Change from Scramble was calculated using the 2^-ΔΔCT method with TBP as the housekeeping gene and the Scrambled SSO as the treatment control.
# full length AR [4] = test: Full length AR level after SSO transfection of prostate cancer cells (RT-qPCR, Western blot); conditions: prostate cancer cell lines LN95, VCaP; 6.25-400 nM transfected; vs Scramble/Scr control; FIG. 2
# Method: (§3) For FIGS. 2 and 3, the experimental methods is described briefly. A total of 6.25, 25, 100, or 400 nM of ARv7 SSO-6, 100 nM of ARv7 SSO-[…], or 100 or 400 nM of Scrambled SSO was diluted in Opti-MEM and mixed with 2 uL Dharmafect 1 (LN95) or RNAiMax (VCaP) diluted in Opti-MEM for a total of 200 uL. The SSO-transfection reagent mixtures were incubated for 10 minutes at room temperature followed by plating in a 12 well plate. A total of 250,000 cells diluted in 800 uL Optimem were seeded atop the SSO-transfection reagent mixtures and incubated for 4 hours at 37° C. and 5% CO2 in a humidified incubator. Media was replaced with complete media after 4 hours (RPMI+10% charcoal stripped FBS for LN95 cells and DMEM+10% FBS for VCaP cells). After an additional 72 or 96 hours of incubation, media was removed and cells were collected in RNA lysis buffer or RIPA buffer containing protease inhibitor (Thermo Fisher). […] RNA was eluted in water and quantified using a Qubit fluorometer (Thermo Fisher). […] Fold Change from Scramble was calculated using the 2^-ΔΔCT method with TBP as the housekeeping gene and the Scrambled SSO as the treatment control. Protein samples were quantified using a Bradford assay (Pierce Scientific) and 25 ug of each cell extract was mixed with SDS sample buffer and submitted to SDS-PAGE. […]
# ARv9 = ARv9 level after SSO transfection of prostate cancer cells; conditions: prostate cancer cell lines LN95, VCaP; 6.25-400 nM transfected; vs Scramble/Scr control; FIG. 2
# Method: as §3
# LN95 cells = test: Prostate cancer cell proliferation (Incucyte % confluence) after SSO transfection; conditions: 100 nM, transfected twice, 7 days, −/+ enzalutamide, vs Scr, FIG. 4
# Method: As depicted in FIG. 4, ARv7 SSO-6 inhibits prostate cancer cell (LN95) proliferation. Briefly, a total of 100 nM of ARv7 SSO-6 or 100 nM of Scrambled SSO was diluted in Opti-MEM and mixed with 2 uL Dharmafect 1 for a total of 200 uL. The SSO-transfection reagent mixtures were incubated for 10 minutes at room temperature followed by plating in a 12 well plate. A total of 250,000 LN95 cells diluted in 800 uL Optimem were seeded atop the SSO-transfection reagent mixtures and incubated for 4 hours at 37 C and 5% CO2 in a humidified incubator. Media was replaced with complete media after 4 hours (RPMI+10% charcoal stripped FBS). 72 hours later cells were lifted using 0.25% trypsin and the transfection procedure was repeated. 4 hours after transfection media was replaced with complete media and cells were gently resuspended by pipetting up and down. Cells were then seeded in to a 96 well plate at 10,000 cells/well and the plate was placed in to the Incucyte S3 live cell imager (Essen Bioscience) and incubated at 37° C. and 5% CO2 for 7 days. % confluence was calculated once per day and fold change from 0 hr was calculated for each time point.
substance,measurement,setting,value
TTGCCAACCCGGAATTTTTCTAGTATGA (all phosphorodiamidate morpholino (PMO)) [ARv7 morph 1],ARv7 (fold change from control morpholino),ARv7 [1],dose-dependent decrease
same,full length AR,full length AR [2],maintenance
"mC*mA*mG*mC*mC*mT*mT*mT*mC*mT*mT*mC*mA*mG*mG*mG*mT*mC (CAGCCTTTCTTCAGGGTC; all 2'-O-methyl, all phosphorothioate, T or U not given here) [Arv7 Cons1]",ARv7 RNA (fold change from Scramble),"ARv7 [3]; LN95, 12.5, 25, 50 nM transfected, 72 h, vs Scrambled SSO, FIG. 5",decreases ARv7 RNA in a dose-dependent manner
mG*mC*mC*mA*mA*mC*mC*mC*mG*mG*mA*mA*mU*mU*mU*mU*mU*mC [ARv7 SSO-6],ARv7 (fold change from Scramble),"ARv7 [3]; prostate cancer cell lines LN95, VCaP, 6.25, 25, 100, 400 nM transfected, 72 or 96 h, FIG. 2",dose dependent decrease
same,full length AR,full length AR [4],maintenance
same,ARv9,ARv9,maintenance
same,"prostate cancer cell proliferation (% confluence, fold change from 0 hr)",LN95 cells,inhibits
mG*mC*mC*mA*mA*mC*mC*mC*mG*mG*mA*mA*mU*mU*mU*mU*mU*mC* mU*mA*mG*mU [ARv7 SSO-6ext],ARv7 (fold change from Scramble),"ARv7 [3]; LN95, 100 nM transfected, FIG. 3",decrease
